Data from PMC9883482, “TPX2 enhances the transcription factor activation of PXR and enhances the resistance of hepatocellular carcinoma cells to antitumor drugs” (Cell Death & Disease, 2023).

What was measured:
[1] = Blood concentration assay of sorafenib, mice bearing MHCC97-L tumours; type: in vivo; conditions: nude, mouse, plasma, 2 mg/kg, 2 mg/kg oral
Method: Table notes: After overexpression of TPX2 in MHCC97-L cells, the cells were inoculated with nude mice to form subcutaneous tumour tissue (the volume of tumour tissue was approximately 1 g) and then given 2 mg/kg via oral administration. After overexpression of TPX2 in MHCC97-L cells, the cells were inoculated into nude mice to form subcutaneous tumour tissue and then in situ liver tumour tissue was established. 2mg/kg via oral administration was given to nude mice. Thereafter, blood levels of sorafenib were measured.

[2] = Sorafenib metabolism/clearance in LS180 cells; type: in vitro ADME; conditions: human, read-out: t1/2 values (converted)
MHCC97-H cells = experiment: MTT cell survival examination; type: cell-based; conditions: Homo sapiens, MHCC97H, 48 h
Method: (§1) In the process of dissolving these pure drug powders, stirring, vortexing, and ultrasonic vibration were used to assist dissolution [17, 18]. After a drug was fully dissolved, Dulbecco’s modified Eagle’s medium (DMEM) without fetal bovine serum (FBS) was used to dilute the drug dissolved in DMSO. For doxorubicin, we used DMEM without FBS to dissolve the drug. When performing cell viability experiments (tetrazolium [MTT] assays), these drugs were diluted.
(§2) The antitumor activity of antitumor drugs injuring HCC cells was examined by using MTT assay. After culturing the HCC cells, transfection experiments were performed, and the cells were then seeded in 96-well cell culture plates (about 8000 cells per well). […] After the cells were treated with the drug for about 48 h, a dose of […] tetrazolium (MTT) reagent was added, and cells with the MTT reagent were incubated for 5 to 6 h. After incubation with the MTT was complete, all liquid in the 96-well cell culture plate was discarded, and about 100 μl of DMSO was added to each well to dissolve the cell samples. During the process of lysing the cell samples, the cell culture plate was shaken for 15 minutes to completely lyse the cells. After the lysis step was complete, the cell culture plate was centrifuged at 12,000 rpm at 4 °C, and the supernatant was collected for evaluation.
(§3) All statistical analyses in the presence work were performed using the GraphPad 8.0 (GraphPad Software Corporation, Armonk, NY, USA). […] For the survival analysis data, the survival curves were analyzed by the log-rank (Mantel–Cox) test to detect the P-value of the survival curve, the median survival time, and the 95% confidence interval (CI). For the co-relationship analysis, the data were analyzed by linear regression to determine the overall trend of a group of data points. […] If the slope was positive, the horizontal coordinate was positively related to the vertical coordinate, and if the slope was negative, the horizontal coordinate was negatively related to the vertical coordinate. For the multi-grouped data, the ordinary one-way analysis of variance (ANOVA) and multiple comparison methods were used. An ANOVA was used to examine whether any difference between groups could be detected. The multiple comparisons (t-test) was used to detect differences between pairs of data.

HepG2 cells = experiment: MTT cell survival examination; type: cell-based; conditions: Homo sapiens, HepG2, 48 h
Method: as §1, §2, §3

MHCC97-L cells = experiment: MTT cell survival examination; type: cell-based; conditions: Homo sapiens, MHCC97L, 48 h, median (95% CI)
Method: as §1, §2, §3

advanced HCC patients = experiment: Prognosis of advanced HCC patients who received sorafenib, by TPX2 mRNA expression; type: in vivo, human; conditions: advanced HCC patients on sorafenib
Method: The human-related experimental materials involved in this study consisted of mainly cDNA samples extracted from patient-derived HCC clinical specimens or the HCC cell lines. The cDNA samples were stored in a –80 °C refrigerator and stored in aliquots. […] Baseline information was detailed in our previous publications. The cell lines use in this study included various HCC cell lines (HepG2 [a HCC cell line], MHCC97-H [a highly aggressive HCC cell line], and MHCC97-L [a lowly aggressive HCC cell line]) and a PXR positive colorectal cancer line LS180. These cells were purchased from the National Infrastructure of Cell Resources of the Chinese Academy of Medical Sciences/China Union Medical College and descripted in our previous work.
All statistical analyses in the presence work were performed using the GraphPad 8.0 (GraphPad Software Corporation, Armonk, NY, USA). […] For the co-relationship analysis, the data were analyzed by linear regression to determine the overall trend of a group of data points. […] If the slope was positive, the horizontal coordinate was positively related to the vertical coordinate, and if the slope was negative, the horizontal coordinate was negatively related to the vertical coordinate. […] An ANOVA was used to examine whether any difference between groups could be detected. […]

[3] = Sorafenib metabolism/clearance in cultured cells, LC-MS/MS; type: in vitro ADME; conditions: human
Method: After incubation with sorafenib was complete, the medium containing sorafenib was discarded and replaced with normal DMEM + FBS for continuous cultures. Cell samples were collected at each time point starting at 0 (when the cell samples were collected immediately after the incubation step/baseline) followed by 4, 8, 12, 24, and 48 h.
For sorafenib-treated samples in cellular experiments, sorafenib processing and extraction of the samples were performed. HCC cell samples were re-suspended in PBS after which the organic solvent acetonitrile at a ratio of 1:1 was added. The samples were then crushed and extracted for about 30 min with vortex shaking. After that step, the samples were centrifuged at 12,000 rpm at 4 °C for about 15 to 20 min. At this time, the samples were separated into cell debris, organic, and water phases. The collected organic phase contained the sample of sorafenib in acetonitrile.
S transition pair was detected using LC–MS/MS: (1) the parent ion was 465 Da and (2) the product ion was 252 Da.
as §3

[4] = oral, Subcutaneous MHCC97-L Control tumour
[5] = oral, Subcutaneous MHCC97-L TPX2 tumour
[6] = po, intrahepatic MHCC97-L Control tumour
[7] = po, intrahepatic MHCC97-L TPX2 tumour

CNC(=O)c1cc(Oc2ccc(NC(=O)Nc3ccc(Cl)c(C(F)(F)F)c3)cc2)ccn1 [sorafenib]
concentration at 2 h [1, 4]: 17.4 ± 9.73 ng/mL
concentration at 2 h [1, 5]: 13.9 ± 6.77 ng/mL
concentration at 8 h [1, 4]: 142 ± 26.8 ng/mL
concentration at 8 h [1, 5]: 122 ± 27.9 ng/mL
concentration at 20 h [1, 4]: 112 ± 30.5 ng/mL
concentration at 20 h [1, 5]: 99.8 ± 19.6 ng/mL
concentration at 40 h [1, 4]: 44.4 ± 16.9 ng/mL
concentration at 40 h [1, 5]: 29.6 ± 17.2 ng/mL
concentration at 2 h [1, 6]: 17.9 ± 8.39 ng/mL
concentration at 2 h [1, 7]: 18.1 ± 9.63 ng/mL
concentration at 8 h [1, 6]: 138 ± 27.9 ng/mL
concentration at 8 h [1, 7]: 144 ± 30 ng/mL
concentration at 20 h [1, 6]: 117 ± 29.9 ng/mL
concentration at 20 h [1, 7]: 115 ± 29.9 ng/mL
concentration at 40 h [1, 6]: 51.6 ± 17.2 ng/mL
concentration at 40 h [1, 7]: 41.4 ± 19.1 ng/mL
half-life at 1 μmol/L ([2]; TPX2 knockdown): 32.7 h
half-life at 1 μmol/L ([2]; TPX2 overexpression): 12 h
half-life at 1 μmol/L ([2]; control of TPX2 knockdown experiment): 21.8 h
half-life at 1 μmol/L ([2]; control of TPX2 overexpression experiment): 21.3 h
IC50 (MHCC97-H cells; Control, median (95% CI)): 1160 nM
IC50 (MHCC97-H cells; siTPX2, median (95% CI)): 470 nM
IC50 (HepG2 cells; HepG2, Control, median (95% CI)): 1270 nM
IC50 (HepG2 cells; HepG2, TPX2 overexpression, median (95% CI)): 4680 nM
IC50 (HepG2 cells; HepG2, siTPX2, median (95% CI)): 500 nM
IC50 (MHCC97-L cells; Control): 1860 nM
IC50 (MHCC97-L cells; TPX2 overexpression): 4840 nM
TTP median value (advanced HCC patients; TPX2 mRNA High (n = 26)): 9.0 months
OS median value (advanced HCC patients; TPX2 mRNA Low (n = 26)): 16.0 months
half-life at 1 μmol/L ([3]; HepG2 cells, Control, median (95% CI), read-out: t1/2 values (converted)): 18.9 h
half-life at 1 μmol/L ([3]; HepG2 cells, TPX2 overexpression, median (95% CI), read-out: t1/2 values (converted)): 13.7 h
half-life at 1 μmol/L ([3]; HepG2 cells, siTPX2, read-out: t1/2 values (converted)): > 24 h
half-life at 1 μmol/L ([3]; MHCC97-H cells, Control, median (95% CI), read-out: t1/2 values (converted)): 15.5 h
half-life at 1 μmol/L ([3]; MHCC97-H cells, siTPX2, median (95% CI), read-out: t1/2 values (converted)): 36.6 h
half-life at 1 μmol/L ([3]; MHCC97-L cells, Control, median (95% CI), read-out: t1/2 values (converted)): 18.7 h
half-life at 1 μmol/L ([3]; MHCC97-L cells, TPX2 overexpression, median (95% CI), read-out: t1/2 values (converted)): 11.9 h
